Patent publication US12303509B2, “Compounds for the treatment of BRAF-associated diseases and disorders” (Pfizer Inc., priority 2020, dated 2025)
Counter-ions that a name gives are not always drawn.

Legend:
H1755 cells = experiment: Cellular phospho-ERK inhibition assay in H1755 cells; type: cell-based; conditions: Homo sapiens, NCI-H1755, 2 hours treatment, read-out: H1755 Cell IC50
Description: A375 and H1755 cells were obtained from the American Type Culture Collection (ATCC, Rockville, MD). A375 cells were maintained in DMEM growth medium containing 10% FBS. H1755 cells were maintained in RPMI growth medium containing 10% FBS.
Cells were harvested according to standard protocols, counted and plated onto flat-bottom, 96-well tissue culture plates (Costar #3599) at 2.5×10^4 cells/well for A375 cells and 1.5×10^4 cells/well for H1755 cells in 100 μL/well of growth medium containing 10% FBS. After an overnight incubation at 37° C. with 5% CO2 cells were treated for 2 hours at 37° C., 5% CO2 with compounds prepared as a 9-point, 1:3.33 fold dilution series with final compound concentrations ranging from 66 pM-10 μM and a constant DMSO concentration of 0.25%. Control wells contained either 0.25% DMSO alone (uninhibited control) or 10 μM binimetinib (complete inhibition control). The levels of phosphorylated ERK are determined using an In Cell Western protocol: following compound incubation, growth medium was discarded, and cells were fixed with 0.4% formaldehyde in PBS for 20 minutes at room temperature. Cells were permeabilized with 100% methanol for 10 minutes at room temperature. Plates were washed with PBS containing 0.05% Tween-20 and blocked for 1 hour at room temperature with LI-COR Blocking Buffer (LI-COR Biosciences; Cat #927-40000). Plates were then incubated for 2 hours at room temperature with 50 μL of a 1:400 dilution of anti-phospho-ERK1/2 (Thr202/Tyr204) (Cell Signaling; Cat #9101) and a 1:1000 dilution of anti-GAPDH (Millipore; Cat #MAB374) in LI-COR blocking buffer containing 0.05% Tween-20. Plates were washed with PBS containing […] Tween-20 then incubated at room temperature for 1 hour with 50 μL of a 1:1000 dilution of anti-rabbit AlexaFluor 680 (Life Technologies; Cat #A21109) and a 1:1000 dilution of anti-mouse IRDye 800CW (LI-COR; Cat #926-32210) in LI-COR blocking buffer containing 0.05% Tween-20. Plates were analyzed by reading on an Odyssey CLx infrared scanner. For each well, the phospho-ERK signal was normalized to the GAPDH signal and converted to POC using the following equation:
[formula] • Where: • Xmax Average Uninhibited Controls • Xmin Average Complete Inhibition Controls IC50 values were then calculated using a 4-parameter fit in XLfit software and are provided in Table A1.

P-gp (MDR1) = P-gp (MDR1) (Homo sapiens (Human), UniProt P08183); experiment: MDR1 LLC-PK1 permeability assay: efflux ratio; type: in vitro ADME; conditions: pig
Description: (§1) Final organic concentration in the assay was 1%.

BCRP = BCRP (Homo sapiens (Human), UniProt Q9UNQ0); experiment: BCRP MDCKII permeability assay: efflux ratio; type: in vitro ADME; conditions: dog
[1] = MDR1 LLC-PK1 and BCRP MDCKII permeability assay: permeability coefficient (Papp); type: in vitro ADME
Description: as §1

[2] = biological target: full-length FLAG-tagged B-Raf(V600E) (Homo sapiens (Human), UniProt P15056, V600E); experiment: BRAF V600E enzyme assay (TR-FRET competitive displacement); type: binding; conditions: averaged IC50; TR-FRET tracer displacement, 60 min
Procedure, shortened: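 Displacement of 50 nM Tracer 1710 from 5 nM full-length N-terminally FLAG-tagged B-Raf(V600E), detected by TR-FRET with 0.5 nM Eu anti-FLAG antibody, in 25 mM HEPES pH 7.4, 10 mM MgCl2, 2% DMSO; 60 min at ~22 °C. Compounds 11-point, 3-fold from 10 μM; IC50 from 4-parameter fit at 50 POC.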

A375 cells = experiment: Cellular phospho-ERK inhibition assay in A375 cells; type: cell-based; conditions: Homo sapiens, A-375, A375 cells (head prints A357), 2 hours treatment, read-out: A357 cell IC50
Procedure, shortened: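 A375 (DMEM) or H1755 (RPMI) cells in 10% FBS treated 2 h at 37 °C with 9-point series, 66 pM–10 μM, 0.25% DMSO. Phospho-ERK1/2 (Thr202/Tyr204) measured by In Cell Western, normalised to GAPDH and to DMSO and 10 μM binimetinib controls; IC50 by 4-parameter fit.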

Sequence of BCRP (Q9UNQ0 whole entry): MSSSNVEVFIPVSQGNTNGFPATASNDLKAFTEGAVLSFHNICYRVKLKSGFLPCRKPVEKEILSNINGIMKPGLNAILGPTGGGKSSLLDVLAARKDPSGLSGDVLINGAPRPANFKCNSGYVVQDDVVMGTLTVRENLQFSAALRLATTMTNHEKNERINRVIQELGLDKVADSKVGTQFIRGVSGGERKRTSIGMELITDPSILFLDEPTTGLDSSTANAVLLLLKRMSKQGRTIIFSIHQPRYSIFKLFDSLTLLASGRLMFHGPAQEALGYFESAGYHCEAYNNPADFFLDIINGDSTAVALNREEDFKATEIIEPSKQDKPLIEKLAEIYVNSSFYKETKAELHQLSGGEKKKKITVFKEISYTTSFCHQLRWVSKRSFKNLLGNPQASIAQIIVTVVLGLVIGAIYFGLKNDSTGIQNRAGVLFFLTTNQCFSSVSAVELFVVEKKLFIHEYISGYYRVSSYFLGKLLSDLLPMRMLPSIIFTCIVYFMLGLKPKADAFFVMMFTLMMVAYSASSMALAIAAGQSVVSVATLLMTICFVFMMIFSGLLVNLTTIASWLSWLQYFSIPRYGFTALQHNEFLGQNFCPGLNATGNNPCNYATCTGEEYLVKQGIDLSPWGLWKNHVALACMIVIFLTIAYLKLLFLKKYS
Sequence of P-gp (MDR1) (P08183 whole entry, species assumed): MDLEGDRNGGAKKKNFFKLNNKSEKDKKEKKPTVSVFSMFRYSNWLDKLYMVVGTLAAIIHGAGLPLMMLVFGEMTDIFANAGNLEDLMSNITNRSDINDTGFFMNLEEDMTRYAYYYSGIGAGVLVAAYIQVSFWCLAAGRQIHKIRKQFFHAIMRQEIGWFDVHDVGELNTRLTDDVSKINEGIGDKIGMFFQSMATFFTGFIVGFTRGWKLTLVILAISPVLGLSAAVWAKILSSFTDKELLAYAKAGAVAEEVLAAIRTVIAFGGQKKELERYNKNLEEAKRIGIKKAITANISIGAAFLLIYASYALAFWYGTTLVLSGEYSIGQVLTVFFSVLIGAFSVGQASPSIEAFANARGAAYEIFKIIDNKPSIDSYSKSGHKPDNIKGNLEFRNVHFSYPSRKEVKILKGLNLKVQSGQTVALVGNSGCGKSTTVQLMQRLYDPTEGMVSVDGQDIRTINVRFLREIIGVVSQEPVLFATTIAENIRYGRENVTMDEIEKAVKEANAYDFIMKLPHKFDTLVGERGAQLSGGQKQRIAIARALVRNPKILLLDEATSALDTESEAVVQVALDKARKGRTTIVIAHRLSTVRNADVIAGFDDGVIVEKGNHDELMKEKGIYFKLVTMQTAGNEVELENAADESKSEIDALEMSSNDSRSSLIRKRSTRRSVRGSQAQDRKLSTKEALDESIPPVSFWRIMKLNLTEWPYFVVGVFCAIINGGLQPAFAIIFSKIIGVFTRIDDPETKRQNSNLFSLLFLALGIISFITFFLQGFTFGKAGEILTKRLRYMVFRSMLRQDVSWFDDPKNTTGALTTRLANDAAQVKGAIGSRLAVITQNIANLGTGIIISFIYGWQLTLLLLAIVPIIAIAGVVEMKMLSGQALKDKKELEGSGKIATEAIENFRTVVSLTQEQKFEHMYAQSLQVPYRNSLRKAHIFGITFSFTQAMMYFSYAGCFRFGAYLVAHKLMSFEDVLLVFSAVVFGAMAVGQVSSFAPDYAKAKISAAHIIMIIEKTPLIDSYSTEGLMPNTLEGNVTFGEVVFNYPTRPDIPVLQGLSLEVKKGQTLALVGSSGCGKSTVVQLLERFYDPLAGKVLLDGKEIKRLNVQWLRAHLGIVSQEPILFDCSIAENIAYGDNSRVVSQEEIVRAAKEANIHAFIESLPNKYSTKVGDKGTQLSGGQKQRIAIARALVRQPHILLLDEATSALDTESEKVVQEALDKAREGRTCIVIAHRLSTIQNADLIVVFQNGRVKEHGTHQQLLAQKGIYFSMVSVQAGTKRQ
Sequence of full-length FLAG-tagged B-Raf(V600E) (P15056 whole entry V600E): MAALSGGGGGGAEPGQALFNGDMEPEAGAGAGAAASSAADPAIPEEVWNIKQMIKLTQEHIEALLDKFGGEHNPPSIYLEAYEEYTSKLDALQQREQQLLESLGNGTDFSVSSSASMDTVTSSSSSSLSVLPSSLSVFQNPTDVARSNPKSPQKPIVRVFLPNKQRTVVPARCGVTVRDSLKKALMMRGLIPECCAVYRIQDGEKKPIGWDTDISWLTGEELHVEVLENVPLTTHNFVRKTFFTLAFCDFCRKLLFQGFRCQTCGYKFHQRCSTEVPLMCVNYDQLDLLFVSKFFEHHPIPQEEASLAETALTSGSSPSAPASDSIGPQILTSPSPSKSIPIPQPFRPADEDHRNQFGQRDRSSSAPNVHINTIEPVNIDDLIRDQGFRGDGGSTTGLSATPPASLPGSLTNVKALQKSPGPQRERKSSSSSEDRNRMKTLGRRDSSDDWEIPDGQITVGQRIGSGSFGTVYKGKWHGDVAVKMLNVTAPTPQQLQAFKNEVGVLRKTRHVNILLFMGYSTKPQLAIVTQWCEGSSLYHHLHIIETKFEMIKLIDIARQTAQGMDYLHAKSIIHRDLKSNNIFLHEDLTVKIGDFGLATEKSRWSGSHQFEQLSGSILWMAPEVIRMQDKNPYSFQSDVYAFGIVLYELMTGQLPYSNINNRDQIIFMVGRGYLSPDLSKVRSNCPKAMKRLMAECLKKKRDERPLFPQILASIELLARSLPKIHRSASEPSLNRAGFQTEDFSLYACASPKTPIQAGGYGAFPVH

IC50 (H1755 cells) [nM] | efflux ratio at 2 h, 1 µM (P-gp (MDR1)) | efflux ratio at 2 h, 1 µM (BCRP) | Papp at 2 h, 1 µM [1] [×10⁻⁶ cm/s] | IC50 [2] [nM] | IC50 (A375 cells) [nM] | Structure (SMILES)
43 | 5.9 | 4.5 | 29 | 6 | 7 | CO[C@H]1CN(S(=O)(=O)Nc2ccc(F)c(Nc3ccc4ncn(C)c(=O)c4c3Br)c2Cl)C[C@H]1F (relative stereo) [Example 16, cis-N-(3-((5-bromo-3-methyl-4-oxo-3,4-dihydroquinazolin-6-yl)amino)-2-chloro-4-fluorophenyl)-3-fluoro-4-methoxypyrrolidine-1-sulfonamide trifluoroacetate]
18 | 3 | 4.9 | 40 | 4 | 2 | CO[C@@H]1CN(S(=O)(=O)Nc2ccc(F)c(Nc3ccc4ncn(C)c(=O)c4c3Cl)c2Cl)C[C@@H]1F (relative stereo) [Example 18, cis-N-(2-chloro-3-((5-chloro-3-methyl-4-oxo-3,4-dihydroquinazolin-6-yl)amino)-4-fluorophenyl)-3-fluoro-4-methoxypyrrolidine-1-sulfonamide]
103 | 1.7 | 1.4 | 31 | 60 | 32 | CO[C@@H]1CCN(S(=O)(=O)Nc2ccc(F)c(Nc3ccc4ncn(C)c(=O)c4c3C)c2Cl)C1 [Example 1, (R)-N-(2-chloro-3-((3,5-dimethyl-4-oxo-3,4-dihydroquinazolin-6-yl)amino)-4-fluorophenyl)-3-methoxypyrrolidine-1-sulfonamide]
58 | 1.2 | 1 | 31 | 36 | 15 | CCN(C)S(=O)(=O)Nc1ccc(F)c(Nc2ccc3ncn(C)c(=O)c3c2Cl)c1Cl [Example 2]
61 | 1.3 | 1.5 | 33 | 30 | 16 | CN(C)S(=O)(=O)Nc1ccc(F)c(Nc2ccc3ncn(C)c(=O)c3c2Cl)c1Cl [Example 3, N-(2-chloro-3-((5-chloro-3-methyl-4-oxo-3,4-dihydroquinazolin-6-yl)amino)-4-fluorophenyl)-(N,N-dimethyl)-sulfamide]
80 | 1.6 | 2.1 | 27 | 32 | 19 | CCN(C)S(=O)(=O)Nc1ccc(F)c(Nc2ccc3ncn(C)c(=O)c3c2F)c1Cl [Example 4, N-(2-chloro-4-fluoro-3-((5-fluoro-3-methyl-4-oxo-3,4-dihydroquinazolin-6-yl)amino)phenyl)-(N-ethyl-N-methyl)-sulfamide]
20 | 3.8 | 3.4 | 27 | 14 | 4 | CO[C@@H]1CCN(S(=O)(=O)Nc2ccc(F)c(Nc3ccc4ncn(C)c(=O)c4c3F)c2Cl)C1 [Example 5, (R)-N-(2-chloro-4-fluoro-3-((5-fluoro-3-methyl-4-oxo-3,4-dihydroquinazolin-6-yl)amino)phenyl)-3-methoxypyrrolidine-1-sulfonamide]
26 | 2.5 | 1.3 | 23 | 10 | 12 | CO[C@@H]1CCN(S(=O)(=O)Nc2ccc(F)c(Nc3ccc4ncn(C)c(=O)c4c3Br)c2Cl)C1 [Example 8, (R)-N-(3-((5-bromo-3-methyl-4-oxo-3,4-dihydroquinazolin-6-yl)amino)-2-chloro-4-fluorophenyl)-3-methoxypyrrolidine-1-sulfonamide trifluoroacetate]
84 | 1.6 | 0.7 | 27 | 8 | 12 | CO[C@@H]1CCN(S(=O)(=O)Nc2ccc(F)c(Oc3ccc4ncn(C)c(=O)c4c3C)c2Cl)C1 [Example 10, (R)-N-(2-chloro-3-((3,5-dimethyl-4-oxo-3,4-dihydroquinazolin-6-yl)oxy)-4-fluorophenyl)-3-methoxypyrrolidine-1-sulfonamide]
75 | 1.3 | 0.8 | 28 | 7 | 17 | Cn1cnc2ccc(Nc3c(F)ccc(NS(=O)(=O)N4CCCC4)c3Cl)c(Br)c2c1=O [Example 11, N-(3-((5-bromo-3-methyl-4-oxo-3,4-dihydroquinazolin-6-yl)amino)-2-chloro-4-fluorophenyl)pyrrolidine-1-sulfonamide trifluoroacetate]
33 | 5.6 | 13 | 26 | 3 | 7 | Cn1cnc2ccc(Nc3c(F)ccc(NS(=O)(=O)N4C[C@@H](F)[C@@H](F)C4)c3Cl)c(F)c2c1=O [Example 21, cis-N-(2-chloro-4-fluoro-3-((5-fluoro-3-methyl-4-oxo-3,4-dihydroquinazolin-6-yl)amino)phenyl)-3,4-difluoropyrrolidine-1-sulfonamide]
52 | 2.7 | 5.6 | 34 | 3 | 15 | Cn1cnc2ccc(Nc3c(F)ccc(NS(=O)(=O)N4C[C@@H](F)[C@@H](F)C4)c3Cl)c(Cl)c2c1=O [Example 22, cis-N-(2-chloro-3-((5-chloro-3-methyl-4-oxo-3,4-dihydroquinazolin-6-yl)amino)-4-fluorophenyl)-3,4-difluoropyrrolidine-1-sulfonamide]
29 | 3 | 17.6 | 24 | 3 | 6 | Cn1cnc2ccc(Nc3c(F)ccc(NS(=O)(=O)N4CCC(F)(F)C4)c3Cl)c(F)c2c1=O [Example 23, N-(2-chloro-4-fluoro-3-((5-fluoro-3-methyl-4-oxo-3,4-dihydroquinazolin-6-yl)amino)phenyl)-3,3-difluoropyrrolidine-1-sulfonamide]
25 | 2.5 | 2.6 | 27 | 2 | 8 | Cn1cnc2ccc(Nc3c(F)ccc(NS(=O)(=O)N4CC[C@@H](F)C4)c3Cl)c(Br)c2c1=O [Example 24, (R)-N-(3-((5-bromo-3-methyl-4-oxo-3,4-dihydroquinazolin-6-yl)amino)-2-chloro-4-fluorophenyl)-3-fluoropyrrolidine-1-sulfonamide trifluoroacetate]
94 | 1.6 | 2.4 | 30 | 2 | 16 | Cn1cnc2ccc(Nc3c(F)ccc(NS(=O)(=O)N4CCC(F)(F)C4)c3Cl)c(Cl)c2c1=O [Example 25, N-(2-chloro-3-((5-chloro-3-methyl-4-oxo-3,4-dihydroquinazolin-6-yl)amino)-4-fluorophenyl)-3,3-difluoropyrrolidine-1-sulfonamide trifluoroacetate]
